Measurements taken from patent US20100291564A1, “Methods for Detection of Micro-Organisms” (MICROSEN MEDTECH LIMITED, priority 2007, published 2010).

Legend:
[1] = tested on: Staph. aureus; assay: Sensitivity of Staph. aureus cells to antibiotic, NAD-dependent ligase detection (LiMA-2, Taq-Man real time PCR); format: cell-based, Staphylococcus aureus; conditions: 10^4 cells added to culture medium, after 4 hours in the presence of antibiotic
Experimental: FIG. 5. Sensitivity of Staph. aureus cells to antibiotic. […]
Take 1 ml fresh Staph. aureus culture (10^6 cells/μl), spin 8000 rpm 5 min, resuspend pellet in 1 ml deionised water Dilute in a series of 10 fold dilutions down to 10^2 cells/μl
After ligation step above add 2 μl of following nuclease mix to each tube:
Add 2 μl to PCR mastermix, cycles were:
The detection limit in this experiment was estimated to be between 10 and 100 cells.

[2] = tested on: E. coli; assay: Drug susceptibility testing by NAD-dependent ligase mediated PCR assay; format: cell-based, Escherichia coli; conditions: for Cycle at which PCR was positive: plus gentamicin 50 μg/ml
Source text: The PCR signal generated is related to the number of ligated molecules of the DNA substrate which in turn is related to the number of ligase molecules present. In turn, the number of molecules of ligase present is dependent on the viability of the bacterium. Upon culture of a given bacterium, if the bacteria are healthy, growing and increasing in number there will be progressively more ligase present which will generate more ligation and more PCR signal. If the bacteria are unhealthy and non-viable or dying there will be no increase in ligase on culture and the number of ligase molecules might even be expected to decrease which will be reflected in the amount of ligation and PCR signal generated. In this example we have tested the susceptibility of the organism to an antibiotic. By culturing in the presence and absence of antibiotic we can compare the signal generated from the bacterial ligase at different time points. Additionally, the experiment can be performed with and without the addition of the NAD+ cofactor. In the presence of added cofactor the ligase can cycle through many ligation steps. In the absence of added cofactor the ligase must depend on endogenous bacterial NAD+ for ligation. These two conditions, therefore are two different measures of the health of the bacterial cell
1. 10 ml of media (LB broth) containing 50 μg/ml gentamicin was inoculated with […] E. coli bacteria/ml and incubated for 3 hours. At 30 min time points 1 ml of the culture was removed and placed on ice until completion of the time course.
2. The bacteria were then pelleted by centrifugation at 6,000×g for 5 min and the supernatant removed.
3. The protocol from this stage was identical to steps 3 to 8 in example 1 except that the ligase reaction was performed with and without added NAD+.

Molecule: Cc1onc(-c2ccccc2)c1C(=O)N[C@@H]1C(=O)N2[C@@H]1SC(C)(C)[C@@H]2C(=O)O [oxacillin]
- fall of NAD-dependent ligase content [1]: > 2×10^3 fold

Molecule: gentamicin
- Cycle at which PCR was positive ([2]; With added NAD+, time 0 min): 26.2
- Cycle at which PCR was positive ([2]; With added NAD+, time 30 min): 25.1
- Cycle at which PCR was positive ([2]; With added NAD+, time 60 min): 25.7
- Cycle at which PCR was positive ([2]; With added NAD+, time 90 min): 26.2
- Cycle at which PCR was positive ([2]; With added NAD+, time 120 min): 27.2
- Cycle at which PCR was positive ([2]; With added NAD+, time 150 min): 26.8
- Cycle at which PCR was positive ([2]; With added NAD+, time 180 min): 26.3
- Cycle at which PCR was positive ([2]; Without added NAD+, time 0 min): 29.5
- Cycle at which PCR was positive ([2]; Without added NAD+, time 30 min): 29.4
- Cycle at which PCR was positive ([2]; Without added NAD+, time 60 min): 31.6
- Cycle at which PCR was positive ([2]; Without added NAD+, time 90 min): 30.1
- Cycle at which PCR was positive ([2]; Without added NAD+, time 120 min): 30.3
- Cycle at which PCR was positive ([2]; Without added NAD+, time 150 min): 29.4
- Cycle at which PCR was positive ([2]; Without added NAD+, time 180 min): 30.1
- signal from the bacterial ligase ([2]; in the presence of gentamicin 50 μg/ml, incubation up to 3 hours): does not increase with incubation
